From patent publication US20070003640A1, “Process for controlling the isomerization of (-)-epicatechin and (+)-catechin in edible products” (priority 2005, published 2007) come the findings set out here.

A short description of this data set: Isomerization of (+)-catechin to (+)-epicatechin. The following applies: equilibrium mixture from isomerization of (+)-catechin. The format is physicochemical. The source says:
While the above examples were specifically directed to the isomerization of (−)-epicatechin to (−)-catechin, it will be understood that the same processes can and will result in the isomerization of (+)-catechin to (+)-epicatechin. It will further be understood that the kinetics for the isomerization of (+)-catechin to (+)-epicatechin are similar to those for the isomerization of (−)-epicatechin to (−)-catechin, viz., the equilibrium point for a given set of temperature and pH parameters is essentially the same for either isomerization, and the equilibrium mixture resulting from the isomerization of (+)-catechin is about 70% (+)-catechin and about 30% (+)-epicatechin, with a molar ratio of (+)-epicatechin to (+)-catechin of about 1:2. Indeed, we have observed that the isomerization of (+)-catechin to (+)-epicatechin favors the same equilibrium point as the isomerization of (−)-epicatechin to (−)-catechin, that is, the molar ration of 1:2 (+)-epicatechin:(+)-catechin.

Turning to `Oc1cc(O)c2c(c1)O[C@H](c1ccc(O)c(O)c1)[C@@H](O)C2` [(+)-catechin], the “(+)-catechin in equilibrium mixture” value is given as “about 70%” and the “(+)-epicatechin in equilibrium mixture” value was “about 30%”.
